The text below walks through data of US20200038348A1, “METHODS AND MATERIALS FOR REDUCING SCAR FORMATION DURING WOUND HEALING” (Mayo Foundation for Medical Education and Research, priority 2017, published 2020).

“Also recorded” adds a separate entry of the source.

The conditions of data set [1]: cited from earlier work.
For data set [2], the system named is WM858 Dual-Glo cells. Briefly: in vitro cell toxicity in the SPP1 screen. The format is cell-based. As to conditions: in the SPP1 promoter screen. The text has this:
(§1) SPP1 is a pro-inflammatory inducer of skin fibrosis and skin aging. […] To screen for transcriptional silencers of SPP1 expression, cells with high endogenous SPP1 expression (e.g., melanoma cells) were identified. Then, the endogenous SPP1 promoter was tagged in melanoma cells with a dual luciferase reporter to create Dual-Glo cells using a genome editing approach. Firefly luciferase was introduced to assay SPP1 promoter activity; renilla luciferase was coupled to the CMV promoter as a loading control (FIG. 1A).

Data set [3] relates to SPP1 promoter. Briefly: Dual-Glo luciferase reporter screen of SPP1 promoter activity (LOPAC library). It is filed as cell-based.
Description: (A) Schematic representation of the DuoGlo construct used for high throughput compound screening. (B-C) SPP1 promoter activity after exposure of WM858 Dual-Glo cells to Vitamin D (B) or retinoid (C).
as §1
(In general: Reporter assays use an easily measured gene product as a stand-in for the process of interest.)

Data set [4] deals with hypertrophic scar formation. Briefly: hypertrophic scar formation, ischemic rabbit ear model, topical treatment. The format is in vivo. How it is done:
Topical pentamidine was evaluated using a hypertrophic scar formation rabbit ear model. Briefly, surgical ligation of leporine auricular vessels induced an ischemic landscape for hypertrophic scar production. Specifically, a cranial artery and vein were ligated; the caudal artery and vein were preserved; and the central artery was ligated, while the central vein was preserved in the rabbit ear (FIG. 2).
All surgeries were conducted in a disinfected area designated for surgical procedures and equipped with necessary lighting and equipment. Briefly, rabbits received intramuscular buprenorphine and enrofloxicin (5-10 mg/kg) prior to the surgery. Anesthesia was induced by a mixture of ketamine and intramuscular xylazine and monitored by medical sciences support staff. Study staff performed surgeries using sterile instruments, drapes, gloves, and gown. Following vascular ligation, one linear full-thickness skin wound was created on the ventral side of each ear with a surgical blade. The skin and perichondrium were removed. The base on which granulation and epithelialization take place was the cartilage. The edges of the wound were closed with 4-0 Nylon sutures.
Following ischemic wounding, the relative ischemia created in the ear at time of surgery and time of sacrifice was assessed with a fluorescent light assisted angiography (Spy Elite, LifeCell). Perfusion of the ear was assessed using the Spy Elite system following intravenous administration of indocyanine green, which utilizes infrared light to detect the dye (FIG. 3).
Following vascular ligation and linear wounding, a sterile occlusive dressing (TegaDerm, 3M) was used to cover the wound site. Animals were allowed to recover for three days without wound disturbance. After 72 hours, the dressing was changed, and the treatment was initiated. […] Daily dressing changes occurred until day 28. About 1/8 teaspoon ([…]) of the treatment agent was applied with each dressing change. Rabbits were trained on the animal snuggler for ease during treatment application.
Animals were monitored daily for any signs of postoperative discomfort, wound infection, weight loss, loss of appetite, and loss of contracture fixation. Any complications such as cage sores, wound infections, weight loss, or wound dehiscence were reviewed with the veterinarian and managed in a way designed to minimize discomfort or suffering. […] Six rabbits were used in this study. For three rabbits, the left ear received Treatment Group 1 (n=3), and the right ear received Treatment Group 2 (n=3). […] One rabbit was excluded from the study due to wound infection:
(§2) Female New Zealand white rabbit ears were used. In total, twelve linear wounds were created using minimally invasive vascular ligation in auricular blood vessels to create ischemic hypertrophic scars. Following surgical ligation, linear wounds were treated with either osteopontin inhibitor 2% topical pentamidine (n=6; left ear) or base only (n=6; right ear) for four weeks. After the treatment period, samples were fixed in 10% formaldehyde, embedded in paraffin and stained for p16 expression.
Female New Zealand white rabbits ears were used. In total, twelve linear wounds were created using minimally invasive vascular ligation in auricular blood vessels to create ischemic hypertrophic scars. Following surgical ligation, linear wounds were treated with the following dose titration: 0.5% pentamidine (n=3); 1% pentamidine (n=3); 2% pentamidine (n=3); or 5% pentamidine (n=3). […]

Data set [5] has as its system p16. Kind of data set: p16 expression staining in rabbit ear skin after topical treatment. The format is in vivo. As to conditions: 2% topical pentamidine versus base only, four weeks, n=6 per group. How it is done:
as §2

Take `N=C(N)c1ccc(OCCCCCOc2ccc(C(=N)N)cc2)cc1` [Pentamidine isethionate, 4,4-[1,5-pentanediylbis(oxy)]bis-benzenecarboximidamid]: the solubility in acetone entry in data set [1] (acetone) was “insoluble”. In addition, in data set [1] (alcohol), the solubility in alcohol entry is “soluble”. The solubility in chloroform result in data set [1] (chloroform) is “insoluble”. Also, in data set [1] (ether), the solubility in ether entry is listed as “insoluble”. Also, in data set [1] (glycerin), the solubility in glycerin result was “soluble”. For the same compound, in data set [1] (water), the solubility in water entry is “soluble”.

For `N=C(N)c1ccc(OCCCCCOc2ccc(C(=N)N)cc2)cc1` [pentamidine, 4,4′-[pentane-1,5-diylbis(oxy)]dibenzenecarboximidamide], in data set [2], the “in vitro cell toxicity” value is reported as “minimal in vitro cell toxicity”. In addition, the “inhibition of SPP1 promoter activity” value in data set [3] (Dual-Glo melanoma cells, firefly luciferase at the SPP1 promoter, renilla/CMV as loading control) is reported as “greater than 80%”. Besides, the hypertrophic scar formation result in data set [4] (0.5% pentamidine, n=3) is on record as “no response to minimal reduction”; in data set [4] (1% pentamidine, n=3), “no response to minimal reduction”; in data set [4] (2% pentamidine in Pracasil-Plus base, daily, four weeks), “Minimal hypertrophic scaring; also recorded: significantly inhibited hypertrophic scar formation; also recorded: observable scar reduction”. Further, the “re-epithelization of the wound” value in data set [4] (2% pentamidine, n=3) was “Effective re-epithelization”. For the same compound, the “wound outcome at high dose” value in data set [4] (5% pentamidine, n=3) was “non-healing wound and abscess formation”. The “p16 expression levels in dermal and epidermal regions” value in data set [5] is listed as “decreased p16 levels; also recorded: reduced p16 expression levels”.

With Vitamin D, the “effect on SPP1 promoter activity” value in data set [3] (WM858 Dual-Glo cells) was “activated”.
